The target of data set [1] is human D-amino acid oxidase (Homo sapiens, UniProt P14920). Nature of the data set: Inhibition of human D-amino acid oxidase. The format is biochemical. The following applies: read-out: IC50 for inhibiting human D-amino acid oxidase.
Data set [2] addresses 2019-nCoV 3CLPro (Severe acute respiratory syndrome coronavirus 2, UniProt P0DTD1). In words: 2019-nCoV 3CLPro fluorogenic protease activity assay at 3 μM (35 nM protease, pH 7.0). The format is biochemical. Particulars: for remaining activity at 3 µM / Residual Protease Activity (%) 3 μM: 3 μM sample; for remaining activity at 3 µM: read-out: Residual Protease Activity (%) 3 μM.

Data set [3] deals with T1, SARS-CoV-2 3CLPro (Severe acute respiratory syndrome coronavirus 2, UniProt P0DTD1). Nature of the data set: Native-PAGE mobility shift binding with 3CLPro. The following applies: 62.5-1000 μM sample mixed with 40 μM 3CLPro, 4° C., 3 hours.
Data set [4] concerns SARS-CoV-2. The following applies: Choy et al., 2020; qRT-PCR, supernatant; MOI = 0.02; cited from earlier work.
Data set [5] deals with T1, SARS-CoV-2 3CLPro. In words: biochemical.
The test system of data set [6] is SARS-CoV-2. Nature of the data set: SARS-CoV-2 virucidal assay in Vero E6 cells (qPCR of RdRP gene). It counts as cell-based. The following applies: MOI 0.01, 24 h. (In general: Real-time PCR tracks product formation cycle by cycle.)
For data set [7] the following is noted: 2020, cited from earlier work.
The target of data set [8] is T2, SARS-CoV-2 viral 3CL protease (Severe acute respiratory syndrome coronavirus 2, UniProt P0DTD1). In words: 3CL protease activity assay, concentration series of SNB01 (IC50). The format is biochemical.
The target of data set [9] is T2, SARS-CoV-2 viral 3CL protease. Nature of the data set: biochemical. The following applies: read-out: Residual Protease Activity (%) 1 μM.
[10] abbreviates: IC50, Table 34, final DMSO concentration 0.05%.
[11] abbreviates: Table 34, final DMSO concentration 0.05%, read-out: IC50 (converted).
The mark [12] stands for this setting: Table 34, final DMSO concentration 0.40%, read-out: IC50 (converted).
[13] abbreviates: 50% inhibition concentration (IC50) against SARS-CoV-2 3CLPro, samples of Table 34, 50 nM protease, 6 μM substrate.

Structures are written as SMILES. Several values for one entry are separate records, joined by “and”; a condition that tells them apart may be missing. Equal entries are not always repeated. Where two headings read alike, the source gives them in different places.

The term IC50 denotes the concentration at which inhibition is half-maximal. As usually defined, the inhibition is the drop in the measured response relative to a control, in per cent. For orientation: EC50 means the concentration needed to bring the measured effect to its halfway point.

human D-amino acid oxidase, sequence (P14920 whole entry): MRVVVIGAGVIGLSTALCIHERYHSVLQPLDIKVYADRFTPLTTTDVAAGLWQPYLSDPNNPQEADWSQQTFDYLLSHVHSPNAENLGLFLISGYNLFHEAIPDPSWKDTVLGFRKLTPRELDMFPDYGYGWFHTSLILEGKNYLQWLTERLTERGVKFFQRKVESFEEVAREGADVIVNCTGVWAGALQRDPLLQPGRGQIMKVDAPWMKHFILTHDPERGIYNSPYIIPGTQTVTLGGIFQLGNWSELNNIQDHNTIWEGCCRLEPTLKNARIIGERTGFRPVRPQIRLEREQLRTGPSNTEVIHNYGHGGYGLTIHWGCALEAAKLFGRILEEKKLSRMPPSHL

Turning to `O=C(O)c1cc(O)c(O)c(OC(=O)c2cc(O)c(O)c(OC(=O)c3cc(O)c(O)c(O)c3)c2)c1` [Compound 14], in data set [1], the IC50 turned out to be 299 nM.

With `O=C(O)c1cc(O)c(O)c(OC(=O)c2cc(O)c(O)c(OC(=O)c3cc(O)c(O)c(OC(=O)c4cc(O)c(O)c(OC(=O)c5cc(O)c(O)c(O)c5)c4)c3)c2)c1` [Compound 18], the IC50 in data set [1] was found to be 121 nM. For the same molecule, in data set [2], the remaining activity at 3 µM stood at 56%. In addition, in data set [2] (3 μM, read-out: inhibition activity against 2019-nCoV 3CLpro), the inhibition at 3 µM is 44%.

Regarding `O=C(O)c1cc(O)c(O)c(O)c1` [GA, gallic acid, reference compound], the “binding to 3CLPro by native-PAGE mobility shift” value in data set [3] is recorded as “no significant binding”.

In the case of `Cc1cccc(C)c1OCC(=O)N[C@@H](Cc1ccccc1)[C@@H](O)C[C@H](Cc1ccccc1)NC(=O)[C@H](C(C)C)N1CCCNC1=O` [Lopinavir], in data set [4], the EC50 was 26100 nM and the “Therapeutic Index (CC50/EC50)” value is recorded as 1.906.

In the case of `O=C(Oc1cc(OC(=O)c2cc(O)c(O)c(OC(=O)c3cc(O)c(O)c(OC(=O)c4cc(O)c(O)c(O)c4)c3)c2)cc(OC(=O)c2cc(O)c(O)c(OC(=O)c3cc(O)c(O)c(OC(=O)c4cc(O)c(O)c(O)c4)c3)c2)c1)c1cc(O)c(O)c(OC(=O)c2cc(O)c(O)c(OC(=O)c3cc(O)c(O)c(O)c3)c2)c1` [Phloroglucinol 9G], the IC50 in data set [5] (setting [10]) and in data set [5] (setting [11]) was 1450 nM in each case.

Consider `O=C(Oc1cc(OC(=O)c2cc(O)c(O)c(OC(=O)c3cc(O)c(O)c(OC(=O)c4cc(O)c(O)c(OC(=O)c5cc(O)c(O)c(OC(=O)c6cc(O)c(O)c(O)c6)c5)c4)c3)c2)cc(OC(=O)c2cc(O)c(O)c(OC(=O)c3cc(O)c(O)c(OC(=O)c4cc(O)c(O)c(OC(=O)c5cc(O)c(O)c(OC(=O)c6cc(O)c(O)c(O)c6)c5)c4)c3)c2)c1)c1cc(O)c(O)c(OC(=O)c2cc(O)c(O)c(OC(=O)c3cc(O)c(O)c(OC(=O)c4cc(O)c(O)c(OC(=O)c5cc(O)c(O)c(O)c5)c4)c3)c2)c1` [Phloroglucinol 15G], for which the IC50 in data set [5] (setting [12]) is 934 nM.

For the molecule `CCC(CC)COC(=O)[C@H](C)N[P@](=O)(OC[C@H]1O[C@@](C#N)(c2ccc3c(N)ncnn23)[C@H](O)[C@@H]1O)Oc1ccccc1` [Remdesivir], the “EC99 against SARS-CoV-2 infection” value was 15 µM and 15.000 µM in data set [6] (Vero E6, cell layer); 15 µM and 15.000 µM in data set [6] (Vero E6, supernatant). The CC50 in data set [7] (Choy et al.) is over 100000 nM; in data set [7] (Jeon et al.) it was over 25000 nM; in [7] (Pruijssers et al.) it was over 10000 nM; in data set [7] (Runfeng et al.), 111000 nM; in data set [7] (Wang et al.) it was over 100000 nM.

In turn, `O=C(OC[C@H]1O[C@@H](OC(=O)c2cc(O)c(O)c(OC(=O)c3cc(O)c(O)c(O)c3)c2)[C@H](OC(=O)c2cc(O)c(O)c(OC(=O)c3cc(O)c(O)c(O)c3)c2)[C@@H](OC(=O)c2cc(O)c(O)c(OC(=O)c3cc(O)c(O)c(O)c3)c2)[C@@H]1OC(=O)c1cc(O)c(O)c(OC(=O)c2cc(O)c(O)c(O)c2)c1)c1cc(O)c(O)c(OC(=O)c2cc(O)c(O)c(O)c2)c1` [SNB01] gave an IC50 in data set [8] of about 474 nM.

Turning to `O=C(OC[C@H]1O[C@H](OC(=O)c2cc(O)c(O)c(O)c2)[C@H](OC(=O)c2cc(O)c(O)c(O)c2)[C@@H](OC(=O)c2cc(O)c(O)c(O)c2)[C@@H]1OC(=O)c1cc(O)c(O)c(O)c1)c1cc(O)c(O)c(O)c1` [Sample 1], in [2], the remaining activity at 3 µM worked out at 52%.

In the case of `O=C(OC[C@H]1O[C@@H](OC(=O)c2cc(O)c(O)c(O)c2)[C@H](OC(=O)c2cc(O)c(O)c(O)c2)[C@@H](OC(=O)c2cc(O)c(O)c(O)c2)[C@@H]1OC(=O)c1cc(O)c(O)c(O)c1)c1cc(O)c(O)c(O)c1` [Sample 2, (2S,3R,4S,5R,6R)-3,4,5-tris(3,4,5-trihydroxybenzoyloxy)-6-((3,4,5-trihydroxybenzoyloxy)methyl)oxan-2-yl 3,4,5-trihydroxybenzoate], the remaining activity at 3 µM in data set [2] was 55%. Also, the remaining activity at 1 µM in [9] is 57%.

`O=C(OC[C@H]1O[C@H](OC(=O)c2cc(O)c(O)c(OC(=O)c3cc(O)c(O)c(O)c3)c2)[C@H](OC(=O)c2cc(O)c(O)c(OC(=O)c3cc(O)c(O)c(O)c3)c2)[C@@H](OC(=O)c2cc(O)c(O)c(OC(=O)c3cc(O)c(O)c(O)c3)c2)[C@@H]1OC(=O)c1cc(O)c(O)c(OC(=O)c2cc(O)c(O)c(O)c2)c1)c1cc(O)c(O)c(OC(=O)c2cc(O)c(O)c(O)c2)c1` [Sample 3]: the IC50 in data set [5] (setting [13]) was under 882 nM; in data set [5] (setting [10]), 666 nM and 665 nM. In addition, the “Residual Protease Activity (%) 3 μM” value in data set [2] was −2%. Moreover, the remaining activity at 1 µM in data set [9] (1 μM sample) was 39%.

Regarding `O=C(OC[C@H]1O[C@@H](OC(=O)c2cc(O)c(O)c(OC(=O)c3cc(O)c(O)c(O)c3)c2)[C@H](OC(=O)c2cc(O)c(O)c(OC(=O)c3cc(O)c(O)c(O)c3)c2)[C@@H](OC(=O)c2cc(O)c(O)c(OC(=O)c3cc(O)c(O)c(O)c3)c2)[C@@H]1OC(=O)c1cc(O)c(O)c(OC(=O)c2cc(O)c(O)c(O)c2)c1)c1cc(O)c(O)c(OC(=O)c2cc(O)c(O)c(O)c2)c1` [Sample 4, (2S,3R,4S,5R,6R)-3,4,5-tris(3,4-dihydroxy-5-(3,4,5-trihydroxybenzoyloxy)benzoyloxy)-6-((3,4-dihydroxy-5-(3,4,5-trihydroxybenzoyloxy)benzoyloxy)methyl)oxan-2-yl 3,4-dihydroxy-5-(3,4,5-trihydroxybenzoyloxy)benzoate], the “binding to 3CLPro by native-PAGE mobility shift” value in [3] is reported as “significant binding”. For the same molecule, the results for the half-maximal inhibitory concentration (IC50) in [5] (setting [13]) and in [5] (setting [10]) were under 882 nM and 806 nM, respectively. Also, the “Residual Protease Activity (%) 3 μM” value in data set [2] is recorded as −9%. Besides, the remaining activity at 1 µM in data set [9] (1 μM sample) was 43%.

For the molecule `O=C(OC[C@H]1O[C@@H](OC(=O)c2cc(O)c(O)c(OC(=O)c3cc(O)c(O)c(OC(=O)c4cc(O)c(O)c(O)c4)c3)c2)[C@H](OC(=O)c2cc(O)c(O)c(OC(=O)c3cc(O)c(O)c(OC(=O)c4cc(O)c(O)c(O)c4)c3)c2)[C@@H](OC(=O)c2cc(O)c(O)c(OC(=O)c3cc(O)c(O)c(OC(=O)c4cc(O)c(O)c(O)c4)c3)c2)[C@@H]1OC(=O)c1cc(O)c(O)c(OC(=O)c2cc(O)c(O)c(OC(=O)c3cc(O)c(O)c(O)c3)c2)c1)c1cc(O)c(O)c(OC(=O)c2cc(O)c(O)c(OC(=O)c3cc(O)c(O)c(O)c3)c2)c1` [Sample 6, (2S,3R,4S,5R,6R)-6-(((3-((3,4-dihydroxy-5-((3,4,5-trihydroxybenzoyl)oxy)benzoyl)oxy)-4,5-dihydroxybenzoyl)oxy)methyl)tetrahydro-2H-pyran-2,3,4,5-tetrayl tetrakis(3-((3,4-dihydroxy-5-((3,4,5-trihydroxybenzoyl)oxy)benzoyl)oxy)-4,5-dihydroxybenzoate)], the “binding to 3CLPro by native-PAGE mobility shift” value in data set [3] is listed as “significant binding”. For the same molecule, the IC50 was under 609 nM in data set [5] (setting [13]), 602 nM in data set [5] (setting [10]) and 602 nM in data set [5] (setting [11]). For the same molecule, the remaining activity at 1 µM in data set [9] (1 μM sample) came to 39%.

Consider `O=C(Oc1ccccc1)c1cc(O)c(O)c(OC(=O)c2cc(O)c(O)c(OC(=O)c3cc(O)c(O)c(O)c3)c2)c1` [phenol 3G], for which the IC50 in data set [5] (IC50, Table 34, final DMSO concentration 0.40%) was 6440 nM; in data set [5] (setting [12]), 6440 nM.

(Values after patent US11382924B2, “Compounds and pharmaceutical uses thereof” (priority 2020, dated 2022).)
